From US8546085B2, “Methods of identifying modulators of the bitter taste receptor TAS2R44” (Givaudan SA, priority 2008, dated 2013)
Like-named read-outs stand apart in the source and are kept apart here.

Columns and labels:
[1] = test system: bitter taste/aftertaste of Rebaudioside A; test: Sensory evaluation of bitter blocking by 8 bitter-sensitive panelists; assay type: in vivo, human
Method: 4-(2,2,3-trimethyl-cyclopentyl)-butanoic acid was sensorically evaluated for its bitter blocking characteristics by 8 bitter-sensitive panelists.
The following samples in water were evaluated and compared in their bitter taste/aftertaste: • Rebaudioside A (60 ppm) with bitter blocker (10 ppm) • Rebaudioside A (60 ppm) without bitter blocker • Rebaudioside A (230 ppm, isosweet to 7% sugar in water) • Rebaudioside A (230 ppm) with bitter blocker (10 ppm 30 ppm and 50 ppm)
20 ml of each sample was presented in random order.

[2] = molecular target: T1, TAS2R44 (Homo sapiens, UniProt P59538, L162M); test: Fluo-4 calcium assay, antagonists of the response of TAS2R44 to steviol glycosides; assay type: cell-based
T1 construct: The full length gene of human TAS2R44 was amplified by polymerase chain reaction (PCR) using gene-specific primers that span the entire coding region; RSS tag (first 45 amino acids of rat somatostatin receptor subtype 3, plus EcoRI site) (N); expressed in transfected cells; host or cells: HEK293T/Galpha16-gustducin 44 cells, stably transfected with pcDNA3.1Zeo-TAS2R44
T1 sequence (P59538 with tags, fused parts or gaps L162M): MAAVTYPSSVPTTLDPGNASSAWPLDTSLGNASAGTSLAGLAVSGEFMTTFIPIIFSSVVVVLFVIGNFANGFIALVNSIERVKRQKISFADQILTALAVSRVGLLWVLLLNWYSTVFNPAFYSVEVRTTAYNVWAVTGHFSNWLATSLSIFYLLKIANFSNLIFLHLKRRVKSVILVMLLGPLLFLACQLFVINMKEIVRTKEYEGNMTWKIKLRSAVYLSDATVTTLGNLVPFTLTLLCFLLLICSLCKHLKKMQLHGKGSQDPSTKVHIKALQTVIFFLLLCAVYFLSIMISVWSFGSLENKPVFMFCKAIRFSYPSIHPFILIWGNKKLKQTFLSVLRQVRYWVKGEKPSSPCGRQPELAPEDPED
Method: All cells were HEK293T cells stably expressing Gα16-gustducin44, or expressing Gα16-gustducin44 and TAS2R44.
The method was carried out as described in example 3 subject to the following modifications:
The samples were tested with and without candidate bitter blocker and the signals were compared. The candidate bitter blocker was dissolved in dimethylsulfoxide (DMSO), and a negative control with equivalent DMSO concentration (0.02%) was performed accordingly to exclude a potential inhibitory effect of the solvent. Furthermore, a control with the relevant steviol glycoside and DMSO (0.02%) was performed accordingly (see table in example 5).
All data was calculated as ΔF/F0 and the standard deviation (STD) is indicated in each table, see results for the identified bitter blocker 4-(2,2,3-trimethyl-cyclopentyl)-butanoic acid below.

Q: How did the “effect on bitterness of Rebaudioside A” value ([1]; 10 ppm bitter blocker, in water) turn out when `CC1CCC(CCCC(=O)O)C1(C)C` (centres unmarked) [4-(2,2,3-trimethyl-cyclopentyl)-butanoic acid] was run?
A: Its value is “blocked the upfront bitterness but some lingering bitterness/aftertaste remained”.

Q: What about the “effect on bitterness of Rebaudioside A” value ([1]; 30 ppm bitter blocker, Rebaudioside A 230 ppm in water) of the same compound?
A: Its value is “improved effect to reduce the lingering bitterness/bitter aftertaste”.

Q: What about the “effect on bitterness of Rebaudioside A” value ([1]; 50 ppm bitter blocker, Rebaudioside A 230 ppm in water) of the same compound?
A: Its value is “improved effect to reduce the lingering bitterness/bitter aftertaste”.

Q: And the “effect on bitterness of Rebaudioside A” value ([1]; 60 ppm, in water)?
A: Its value is “completely blocked the bitterness including the bitter aftertaste”.

Q: What about the “effect on bitter taste/aftertaste of Rebaudioside A” value ([1]; all panelists, samples in water) of the same compound?
A: The value was “blocked or significantly reduced the bitter taste/aftertaste”.

Q: And the “TAS2R44 ΔF/F0” value ([2]; 0.7 mM rebaudioside A (EC50) + bitter blocker 0.098 μM)?
A: Its value is 0.4022.

Q: And the “TAS2R44 ΔF/F0” value ([2]; 0.7 mM rebaudioside A (EC50) + bitter blocker 0.195 μM)?
A: The value was 0.3678.

Q: What about the “TAS2R44 ΔF/F0” value ([2]; 0.7 mM rebaudioside A (EC50) + bitter blocker 0.391 μM) of the same compound?
A: The value was 0.2825.

Q: What about the “TAS2R44 ΔF/F0” value ([2]; 0.7 mM rebaudioside A (EC50) + bitter blocker 0.781 μM) of the same compound?
A: The value was 0.2156.

Q: And the “TAS2R44 ΔF/F0” value ([2]; 0.7 mM rebaudioside A (EC50) + bitter blocker 1.563 μM)?
A: Its value is 0.1328.

Q: What about the “TAS2R44 ΔF/F0” value ([2]; 0.7 mM rebaudioside A (EC50) + bitter blocker 3.125 μM) of the same compound?
A: Its value is 0.1225.

Q: And the “TAS2R44 ΔF/F0” value ([2]; 0.7 mM rebaudioside A (EC50) + bitter blocker 6.250 μM)?
A: Its value is 0.1794.

Q: And the “TAS2R44 ΔF/F0” value ([2]; 0.7 mM rebaudioside A (EC50) + bitter blocker 12.50 μM)?
A: The value was 0.2056.

Q: And the “TAS2R44 ΔF/F0” value ([2]; 0.7 mM rebaudioside A (EC50) + bitter blocker 25.00 μM)?
A: Its value is 0.2275.

Q: What about the “TAS2R44 ΔF/F0” value ([2]; 0.7 mM rebaudioside A (EC50) + bitter blocker 50.00 μM) of the same compound?
A: Its value is 0.2347.

Q: And the “TAS2R44 ΔF/F0” value ([2]; 0.7 mM rebaudioside A (EC50) + bitter blocker 100.0 μM)?
A: Its value is 0.2238.

Q: What about the “TAS2R44 ΔF/F0” value ([2]; 2.2 mM stevioside (EC50) + bitter blocker 0.098 μM) of the same compound?
A: Its value is 0.665.

Q: What about the “TAS2R44 ΔF/F0” value ([2]; 2.2 mM stevioside (EC50) + bitter blocker 0.195 μM) of the same compound?
A: Its value is 0.596.

Q: What about the “TAS2R44 ΔF/F0” value ([2]; 2.2 mM stevioside (EC50) + bitter blocker 0.391 μM) of the same compound?
A: Its value is 0.555.

Q: And the “TAS2R44 ΔF/F0” value ([2]; 2.2 mM stevioside (EC50) + bitter blocker 0.781 μM)?
A: Its value is 0.491.

Q: And the “TAS2R44 ΔF/F0” value ([2]; 2.2 mM stevioside (EC50) + bitter blocker 1.563 μM)?
A: The value was 0.431.

Q: What about the “TAS2R44 ΔF/F0” value ([2]; 2.2 mM stevioside (EC50) + bitter blocker 3.125 μM) of the same compound?
A: The value was 0.430.

Q: And the “TAS2R44 ΔF/F0” value ([2]; 2.2 mM stevioside (EC50) + bitter blocker 6.250 μM)?
A: Its value is 0.328.

Q: What about the “TAS2R44 ΔF/F0” value ([2]; 2.2 mM stevioside (EC50) + bitter blocker 12.50 μM) of the same compound?
A: Its value is 0.293.

Q: What about the “TAS2R44 ΔF/F0” value ([2]; 2.2 mM stevioside (EC50) + bitter blocker 25.00 μM) of the same compound?
A: Its value is 0.252.

Q: And the “TAS2R44 ΔF/F0” value ([2]; 2.2 mM stevioside (EC50) + bitter blocker 50.00 μM)?
A: The value was 0.238.

Q: And the “TAS2R44 ΔF/F0” value ([2]; 2.2 mM stevioside (EC50) + bitter blocker 100.0 μM)?
A: The value was 0.212.

Q: And the IC50 ([2]; inhibition of the response to 0.7 mM rebaudioside A, read-out: IC50 concentration for rebaudioside)?
A: The IC50 was 357 nM.

Q: What about the IC50 ([2]; inhibition of the response to 2.2 mM stevioside, read-out: IC50 concentration for stevioside) of the same compound?
A: Its IC50 is 578 nM.
